# Results: publication PMC11231610, “Fatty acid binding to the human transport proteins FABP3, FABP4, and FABP5 from a Ligand’s perspective” (The Journal of Biological Chemistry, 2024)
# “And” between values parts separate entries of the source, which are not always exact repeats. Equal values may be shown once. Read-outs that look alike come from different tables or passages of the source.
# Tests used:
# Type in all cases: binding
# FABP5 [1] = target: T1, FABP5 (Homo sapiens, UniProt Q01469); assay: CW EPR spectra and spectral simulations of spin-probed fatty acids with FABP5
# T1 construct: purchased Sigma Aldrich
# T1 sequence (Q01469 whole entry): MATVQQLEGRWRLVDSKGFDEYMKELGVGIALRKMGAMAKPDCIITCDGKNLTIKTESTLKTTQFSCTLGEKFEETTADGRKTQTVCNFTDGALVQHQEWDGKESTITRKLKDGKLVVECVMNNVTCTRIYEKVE
# Procedure: (§1) For a more in-depth view of the binding mechanism, CW EPR spectra of 5/16-DSA with concentration series of the FABPs were measured and simulated. […] Equal concentrations of 20 μM of each spin probe (5- and 16-DSA) were mixed with FABP concentrations of 0 to 200 μM, increasing the resulting ligand/protein ratio in the samples stepwise from 1/0 to 1/10.
# (§2) To analyze the spectra quantitatively, subsequent EPR spectral simulations were performed (Fig. 2, B and C). […] For a better understanding, a first interpretation of these components is given at this point. The rotational dynamics are thought to be indirectly proportional to the strength of intermolecular interactions between fatty acid and FABP. Therefore, they are indicative of the binding state of the fatty acids. Higher rotational correlation times signalize lower ligand dynamics and stronger interactions with the protein. […] This exchange broadening can only occur if radicals are located very close distance each other, colliding with each other, leading to partial overlap of spin-bearing orbitals.
# (§3) The fractions (weights) Φx of the spectral components were extracted from the EPR simulations of the concentration series and were used to calculate the concentrations of all components with Eq (1). in Figure 3. This was performed for the intermediately and strongly bound components, as well as for their sum, called totally bound 5/16-DSA, to construct binding curves for all FABPs and spin probes. […] Different fit functions were applied to the curves for a better qualitative and quantitative analysis.
# FABP3 = target: T2, FABP3 (Homo sapiens, UniProt P05413); assay: CW EPR spectra and spectral simulations of spin-probed fatty acids with FABP3
# T2 construct: purchased Sigma Aldrich
# T2 sequence (P05413 whole entry): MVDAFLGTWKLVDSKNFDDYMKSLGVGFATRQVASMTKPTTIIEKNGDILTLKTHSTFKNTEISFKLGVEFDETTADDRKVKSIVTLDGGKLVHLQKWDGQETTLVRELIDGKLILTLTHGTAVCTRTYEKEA
# Procedure: as §1, §2, §3
# FABP4 = target: T3, FABP4 (Homo sapiens, UniProt P15090); assay: CW EPR spectra and spectral simulations of spin-probed fatty acids with FABP4; conditions: 37 °C
# T3 construct: purchased Sigma Aldrich
# T3 sequence (P15090 whole entry): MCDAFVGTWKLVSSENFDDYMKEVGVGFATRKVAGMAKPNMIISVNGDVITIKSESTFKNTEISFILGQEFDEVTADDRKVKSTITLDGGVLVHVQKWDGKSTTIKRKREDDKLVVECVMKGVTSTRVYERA
# Procedure: as §1, §2, §3
# FABP5 [2] = target: T1, FABP5; assay: DHA displacement of 16-DSA from FABP5 by CW EPR; conditions: FABP5/16-DSA/DHA up to 20/20/100
# From the text: In a second addition during revision, we were curious about the question of whether our model ligands that bind with medium affinity to the FABP binding pocket will be displaced when we add a native ligand with higher affinity and whether we could detect this displacement with our CW EPR setup. The native ligand DHA was chosen for this displacement analysis since it is well-known to bind with high affinity to FABP5 ([26]). DHA was pre-dissolved in ethanol, diluted into buffer, and mixed with FABP5 and 16-DSA. […] Samples with FABP5/16-DSA/DHA ratios 20/20/0, 20/20/5, 20/20/10, 20/20/20, 20/20/50, and 20/20/100 were prepared with 5 min incubation time in between 16-DSA and DHA addition. […] We assume that the well-known high binding affinity of DHA refers to the state of strong binding within the pocket. […] Instead, a dynamic exchange of ligands seems to occur, as we consistently observe it with albumins from different species. However, this part opens the way to other future competitive binding assays via CW EPR spectroscopy, e.g., with pharmaceuticals that bind to FABPs.
# CW EPR spectroscopic measurements were performed at X-band frequencies (∼9.4 GHz) with a benchtop spectrometer Magnettech MS-5000 (Freiberg Instruments GmbH, now Bruker Biospin). The samples were prepared in low-binding PCR tubes (250 μl). Protein and 5/16-DSA solutions were mixed with HEPES/NaCl buffer at pH 7.5, to obtain samples with a constant 5/16-DSA concentration of 20 μM and varying FABP concentrations of 200, 100, 50, 35, 25, 20, 15, 10 and 5 μM. After an incubation time of 20 min, the samples were transferred into glass capillaries, which were sealed with ‘Critoseal’. At first, solutions with 20 μM of 5/16-DSA were measured as references at 37 °C. The concentration series of FABP with 20 μM 5/16-DSA were measured at 37 °C, directly after preparation. Afterward, the sample capillaries were stored at 4 °C, and subsequent temperature-dependent measurements were performed. […]
# [3] = 37 °C, 20 μM spin probe, EPR binding curve, read-out: KD,T,75′ (fit), apparent KD read at 75% totally bound
# [4] = Hill fit of EPR binding curve, totally bound, 37 °C
# [5] = Hill fit, totally bound (T), y = bound 5/16-DSA
# [6] = read-out: KD,T,50′ (fit), apparent KD read at 50% totally bound, 37 °C, 20 μM spin probe, EPR binding curve
# [7] = Fig. 2B, 20 μM 5-DSA with 100 μM FABP3
smiles,measurement,setting,value
"CCCCCCCCCCCCCC1(CCCC(=O)O)OCC(C)(C)N1[O] (stereo not shown) [5-DSA, 5-DOXYL stearic acid]",Kd,"FABP5 [1]; 37 °C, 20 μM FABP5, 20 μM spin probe, read-out: KD,T,20μM (calculated, totally bound)",2.05 ± 0.5 µM
same,Kd,FABP5 [1]; [3],25 ± 0.3 µM
same,Kd,"FABP5 [1]; 37 °C, 50 μM FABP5, 20 μM spin probe, read-out: KD,T,50μM (calculated, totally bound)",5.82 ± 1.14 µM
same,"ΔGF−I,100μM (free to intermediately bound)","FABP5 [1]; 37 °C, 100 μM FABP5",-6.14 ± 0.048 kcal/mol
same,"ΔGF−S,100μM (free to strongly bound)","FABP5 [1]; 37 °C, 100 μM FABP5",-4.97 ± 0.024 kcal/mol
same,"ΔGF−T,100μM (free to totally bound)","FABP5 [1]; 37 °C, 100 μM FABP5",-7.24 ± 0.19 kcal/mol
same,"ΔGI−S,100μM (intermediately to strongly bound)","FABP5 [1]; 37 °C, 100 μM FABP5",0.621 ± 0.024 kcal/mol
same,Kd,"FABP5 [1]; 37 °C, 100 μM FABP5, 20 μM spin probe, read-out: KD,T,100μM (calculated, totally bound)",7.79 ± 0.37 µM
same,"aiso, component (1) free","FABP5 [1]; 37 °C, EPR simulation",44.1 MHz
same,"aiso, component (2) intermediately bound","FABP5 [1]; 37 °C, EPR simulation",44.9–46.9 MHz
same,"aiso, component (3) strongly bound","FABP5 [1]; 37 °C, EPR simulation",42.3–43.7 MHz
same,"τc,iso, component (1) free","FABP5 [1]; 37 °C, EPR simulation",0.09–0.1 ns
same,"τc,iso, component (2) intermediately bound","FABP5 [1]; 37 °C, EPR simulation",4.8 ns
same,"τc,iso, component (3) strongly bound","FABP5 [1]; 37 °C, EPR simulation",17.9 ns
same,totally bound fraction,"FABP5 [1]; 37 °C, high FABP5 excess",94.8%
same,Hill coefficient n,FABP5 [1]; [4],1.109 ± 0.041 and ≈ 1
same,Hill fit k,"FABP5 [1]; Hill fit, totally bound (T), x = c(FABP5)/c(5/16-DSA)",0.352 ± 0.009
same,Hill fit Vmax,FABP5 [1]; [5],96.295 ± 0.907
same,Kd,FABP5 [1]; [6],6.6 ± 0.1 µM
same,Kd,"FABP3; 37 °C, 20 μM FABP3, 20 μM spin probe, read-out: KD,T,20μM (calculated, totally bound)",0.82 ± 0.65 µM
same,Kd,FABP3; [3],17.4 ± 0.2 µM
same,Kd,"FABP3; 37 °C, 50 μM FABP3, 20 μM spin probe, read-out: KD,T,50μM (calculated, totally bound)",2.44 ± 1.87 µM
same,"ΔGF−I,100μM (free to intermediately bound)","FABP3; 37 °C, 100 μM FABP3",-6.84 ± 0.22 kcal/mol
same,"ΔGF−S,100μM (free to strongly bound)","FABP3; 37 °C, 100 μM FABP3",-4.4 ± 0.048 kcal/mol
same,"ΔGF−T,100μM (free to totally bound)","FABP3; 37 °C, 100 μM FABP3",-8.08 ± 0.813 kcal/mol
same,"ΔGI−S,100μM (intermediately to strongly bound)","FABP3; 37 °C, 100 μM FABP3",1.27 ± 0.072 kcal/mol
same,Kd,"FABP3; 37 °C, 100 μM FABP3, 20 μM spin probe, read-out: KD,T,100μM (calculated, totally bound)",2.06 ± 2.68 µM
same,"aiso, component (1) free","FABP3; 37 °C, EPR simulation",44.1 MHz
same,"aiso, component (2) intermediately bound","FABP3; 37 °C, EPR simulation",42.9 MHz
same,"aiso, component (3) strongly bound","FABP3; 37 °C, EPR simulation",41.3 MHz
same,"τc,iso, component (1) free","FABP3; 37 °C, EPR simulation",0.1 ns
same,"τc,iso, component (2) intermediately bound","FABP3; 37 °C, EPR simulation",4.8–4.9 ns
same,"τc,iso, component (3) strongly bound","FABP3; 37 °C, EPR simulation",17.9–19 ns
same,bound molecules at complete saturation,"FABP3; 37 °C, tenfold protein excess, totally bound",100%
same,"rotational correlation time τc, component (1)",FABP3; [7],0.1 ns
same,"rotational correlation time τc, component (3)",FABP3; [7],17.8 ns
same,Hill coefficient n,FABP3; [4],1.898 and > 1
same,Hill fit k,"FABP3; Hill fit, totally bound (T), x = c(FABP3)/c(5/16-DSA)",0.475 ± 0.019
same,Hill fit Vmax,FABP3; [5],98.766 ± 1.7
same,Kd,FABP3; [6],9.6 ± 0.1 µM
same,Kd,"FABP4; 20 μM FABP4, 20 μM spin probe, read-out: KD,T,20μM (calculated, totally bound)",20.8 ± 0.8 µM
same,Kd,"FABP4; 20 μM spin probe, EPR binding curve, read-out: KD,T,75′ (fit), apparent KD read at 75% totally bound",66 ± 0.7 µM
same,Kd,"FABP4; 50 μM FABP4, 20 μM spin probe, read-out: KD,T,50μM (calculated, totally bound)",25.3 ± 1 µM
same,"ΔGF−I,100μM (free to intermediately bound)",FABP4; 100 μM FABP4,-6.19 ± 0.096 kcal/mol
same,"ΔGF−S,100μM (free to strongly bound)",FABP4; 100 μM FABP4,-4.85 ± 0.024 kcal/mol
same,"ΔGF−T,100μM (free to totally bound)",FABP4; 100 μM FABP4,-7.12 ± 0.263 kcal/mol
same,"ΔGI−S,100μM (intermediately to strongly bound)",FABP4; 100 μM FABP4,0.741 ± 0.048 kcal/mol
same,Kd,"FABP4; 100 μM FABP4, 20 μM spin probe, read-out: KD,T,100μM (calculated, totally bound)",9.53 ± 0.53 µM
same,"aiso, component (1) free",FABP4; EPR simulation,44.1 MHz
same,"aiso, component (2) intermediately bound",FABP4; EPR simulation,46.9 MHz
same,"aiso, component (3) strongly bound",FABP4; EPR simulation,43.0 MHz
same,"τc,iso, component (1) free",FABP4; EPR simulation,0.06–0.08 ns
same,"τc,iso, component (2) intermediately bound",FABP4; EPR simulation,4.8 ns
same,"τc,iso, component (3) strongly bound",FABP4; EPR simulation,17.9 ns
same,Hill coefficient n,"FABP4; Hill fit of EPR binding curve, totally bound",> 1
same,Kd,"FABP4; read-out: KD,T,50′ (fit), apparent KD read at 50% totally bound, 20 μM spin probe, EPR binding curve",31.6 ± 0.3 µM
"CC/C=C\C/C=C\C/C=C\C/C=C\C/C=C\C/C=C\CCC(=O)O [DHA, Cis-4,7,10,13,16,19-Docosahexaenoic acid]",bound 16-DSA with rising DHA content,FABP5 [2],55%
same,displacement of 16-DSA,FABP5 [2],no complete displacement of 16-DSA occurred
